# PMC3613087, “Aldose Reductase Inhibitory Activity of Compounds from Zea mays L” (BioMed Research International, 2013)
# Like-named read-outs stand apart in the source and are kept apart here.
# What was measured:
# [1] = target: T1, rat lens aldose reductase (RLAR) (Rattus norvegicus, UniProt P07943); assay: Rat lens aldose reductase (RLAR) inhibitory assay, DL-glyceraldehyde as substrate; type: biochemical; settings: for inhibition at 1 µg/mL: concentration 1 μg/mL; for inhibition at 5 µg/mL: concentration 5 μg/mL; for inhibition at 10 µg/mL: read-out: Inhibition (%) of RLAR; for IC50: least-squares regression of log concentration vs inhibitory activity; for inhibition at 40 µg/mL: concentration 40 μg/mL
# T1 construct: from tissue; host or cells: rat lens (Sprague-Dawley) homogenate, partially purified
# Experimental: RLAR activity was assayed according to the methods described by Dufrane et al.. […] The rat lens homogenate was prepared according to the method of Hayman and Kinoshita with some modifications. […] The partially purified material was separated into 1.0 mL aliquots and stored at −40°C. […] Each 1.0 mL cuvette contained equal units of enzyme, 0.05 M sodium phosphate buffer (pH 6.2), and 0.3 mM NADPH with or without 10 mM substrate and inhibitor. For inhibition studies, concentrated stocks of AR inhibitors prepared in DMSO were used, and the final concentration of DMSO was not more than 1%.
# [2] = test system: galactitol accumulation in rat erythrocytes; assay: Blood culture and intracellular galactitol measurement; type: cell-based; settings: 30 mM galactose, 50 μg/mL compound, 3 h; for inhibition at 50 µg/mL: Rattus norvegicus, Erythrocyte
# Experimental: Blood sample was collected in heparin-containing polypropylene tube from 10-week-old male rats. For sugar and sugar alcohol analysis, erythrocytes from heparinized blood were separated from the plasma and buffy coat by centrifuging at 2000 ×g for 10 min. The cells were washed thrice with normal saline (0.9% NaCl) at 4°C. In the final washing, the cells were centrifuged at 2000 ×g for 10 min to obtain a consistently packed cell preparation. The packed cells (1 mL) were then incubated in a Krebs-Ringer bicarbonate buffer (pH 7.4) containing 30 mM galactose in the presence or absence of samples at 37°C in 5% CO2 for 3 h. The erythrocytes were washed with cold saline by centrifuging at 2000 ×g for 10 min, precipitated by adding 6% of cold perchloric acid (3 mL), and centrifuged again at 2000 ×g for 10 min. The supernatant was neutralized with 2.5 M K2CO3 at 4°C and used for galactitol determination. HPLC analysis for sugar and sugar alcohol in blood was performed with this supernatant of red blood cell homogenate after being benzoylated.
# [3] = test system: galactitol accumulation in rat lens; assay: Lens culture and intracellular galactitol measurement; type: cell-based; settings: 30 mM galactose, compound 5 μg/mL; for Galactitol content μg/lens wet weight (g): mean ± SD of triplicate; for inhibition at 5 µg/mL: Rattus norvegicus
# Experimental: Lenses isolated from 10-week-old male rats were cultured for 6 d in TC-199 medium that contained 15% fetal bovine serum 100 U/mL penicillin and 0.1 mg/mL streptomycin under sterile conditions in an atmosphere of 5% CO2 and 95% air at 37°C. Samples were dissolved in DMSO. […] Each lens was placed in well containing 1.0 mL of medium. Lenses from each group were minced in 150 μL of phosphate-buffered saline on ice, homogenized by sonication, and centrifuged at 22.000 g for 10 min at 4°C. The supernatant was filtered through a membrane filter (Ultrafree-MC, nominal molecular weight limit 10,000; Millipore, Bedford, MA, USA) to remove proteins. HPLC analysis for sugar alcohol in lens was performed with this filtrate after being benzoylated.
# [4] = target: T2, recombinant human aldose reductase (rhAR) (Homo sapiens, UniProt P15121); assay: Kinetics of rhAR by active compounds (Lineweaver-Burk plots); type: biochemical; settings: DL-glyceraldehyde 0.1-1.0 mM
# T2 construct: purchased Wako Pure Chemical Industries (Osaka, Japan)
# Experimental: Reaction mixtures consisted of 0.1 M potassium phosphate, 0.16 mM NADPH, and […] of rhAR with varied concentrations of substrate DL-glyceraldehyde and AR inhibitor in a total volume of 200 μL. Concentrations were ranged from 0.1 to 1.0 mM for DL-glyceraldehyde. rhAR activity was assayed spectrophotometrically by measuring the decrease in absorption of NADPH at 340 nm after substrate addition using Biotek Power Wave XS spectrophotometer (Biotek instruments, VT, USA). K m and V max of rhAR were determined with varying concentrations of DL-glyceraldehyde as a substrate in the absence and presence of different concentrations of inhibitor by Lineweaver-Burk double reciprocal plots. Inhibitory constant (K i) was derived by plotting slopes obtained from Lineweaver-Burk plots versus inhibitors concentration.
# [5] = concentration 10 μg/mL, mean of triplicate
# [6] = read-out: IC50 (μg/mL) RLAR (converted)
inhibition at 1 µg/mL ([1]; mean of triplicate) [%],inhibition at 5 µg/mL ([1]; mean of triplicate) [%],"inhibition at 10 µg/mL [1, 5] [%]",IC50 ([1]; read-out: IC50 (μM) RLAR) [µM],"IC50 [1, 6] [µM]",RLAR inhibitory activity (in words) [1],inhibition at 40 µg/mL ([1]; mean of triplicate) [%],Compound,inhibition at 10 µg/mL [1] [%],Galactitol content (μM) in rat erythrocyte [2] [µM],inhibition at 50 µg/mL [2] [%],Galactitol content μg/lens wet weight (g) [3],inhibition at 5 µg/mL [3] [%],Inhibition type of rhAR [4]
16.9,48.1,73.7,34.8,34.8,,,"O=C(O)c1c(O)cc(O)cc1O [2,4,6-trihydroxybenzoic acid (3), 2,4,6-trihydroxybenzoic acid]",,,,,,
,,20.3,,> 59.5,,,"COc1cc(C(=O)O)ccc1O [Vanillic acid (2), vanillic acid]",,,,,,
,,,,> 19.3,did not RLAR inhibitory activity,,O=C(O)CC(=O)OC[C@H]1O[C@@H](Oc2cc3c(O)cc(O)cc3[o+]c2-c2ccc(O)cc2)[C@H](O)[C@@H](O)[C@@H]1O [pelargonidin 3-(6′′-malonylglucoside)],,,,,,
19,47.8,68,11.7,11.7,,,"O=C(O)CC(=O)OC[C@H]1O[C@@H](Oc2cc3c(O)cc(O)cc3[o+]c2-c2ccc(O)c(O)c2)[C@H](O)[C@@H](O)[C@@H]1O [Cyanidin-3-(6′′-malonylglucoside) (11), cyanidin 3-(6′′-malonylglucoside)]",,,,,,
11.2,49.8,77.2,21.9,21.8,,,"COc1cc(/C=C/C(=O)O)ccc1O [Ferulic acid (5), ferulic acid]",,,,,,
13.8,43.7,77.8,36.7,36.7,,,"O=C(O)C=Cc1ccc(O)cc1 [p-hydroxycinnamic acid (4), p-hydroxycinnamic acid]",,,,,,
,,,,> 86.3,did not RLAR inhibitory activity,37,"COc1cc(-c2[o+]c3cc(O)cc(O)c3cc2O[C@@H]2O[C@H](CO)[C@@H](O)[C@H](O)[C@H]2O)ccc1O [Peonidin-3-glucoside (10), peonidin-3-glucoside]",,,,,,
,,,,> 92.3,did not RLAR inhibitory activity,13.2,"OC[C@H]1O[C@@H](Oc2cc3c(O)cc(O)cc3[o+]c2-c2ccc(O)cc2)[C@H](O)[C@@H](O)[C@@H]1O [Pelargonidin-3-glucoside (9), pelargonidin-3-glucoside]",,,,,,
16.4,73.7,89.7,5.67,5.66,,,"COc1cc(-c2oc3cc(O)cc(O)c3c(=O)c2O[C@@H]2O[C@H](CO)[C@@H](O)[C@H](O)[C@H]2O)ccc1O [3′-methoxyhirsutrin (7), 3′-methoxyhirsutrin]",,20.19,~12,828.35 ± 73.27 μg/lens wet weight (g),1.86,uncompetitive
,,,,> 89,did not RLAR inhibitory activity,47.7,"OC[C@H]1O[C@@H](Oc2cc3c(O)cc(O)cc3[o+]c2-c2ccc(O)c(O)c2)[C@H](O)[C@@H](O)[C@@H]1O [Cyanidin-3-glucoside (8), cyanidin-3-glucoside]",,,,,,

Compound,inhibition at 1 µg/mL ([1]; mean of triplicate) [%],inhibition at 5 µg/mL ([1]; mean of triplicate) [%],"inhibition at 10 µg/mL [1, 5] [%]",IC50 ([1]; read-out: IC50 (μM) RLAR) [µM],"IC50 [1, 6] [µM]",RLAR inhibitory activity (in words) [1],inhibition at 40 µg/mL ([1]; mean of triplicate) [%],inhibition at 10 µg/mL [1] [%],Galactitol content (μM) in rat erythrocyte [2] [µM],inhibition at 50 µg/mL [2] [%],Galactitol content μg/lens wet weight (g) [3],inhibition at 5 µg/mL [3] [%],Inhibition type of rhAR [4]
"O=C(O)c1ccc(O)c(O)c1 [Protochatechuic acid (1), protocatechuic acid]",,,,,> 64.9,,,3.22,,,,,
"O=c1c(O[C@@H]2O[C@H](CO)[C@@H](O)[C@H](O)[C@H]2O)c(-c2ccc(O)c(O)c2)oc2cc(O)cc(O)c12 [Hirsutrin (6), hirsutrin]",27.6,76.2,86.7,4.78,4.78,,,,15.70,~32.5,558.92 ± 89.12 μg/lens wet weight (g),~33.8,competitive
"O=c1c(O)c(-c2ccc(O)c(O)c2)oc2cc(O)cc(O)c12 [Quercetin, quercetin, reference compound]",30.3,67.9,83,,,,,,16.15,30.5,448.81 ± 69.43 μg/lens wet weight (g),46.8,
